In PubChem BioAssay (NCI):
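The compound was tested at five concentrations on cells cultured in 96-well plates, with a 48-hour exposure period. TGI marks complete inhibition of growth.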

Tests used:
Assay in all cases: growth of human tumour cells (NCI), 48 h
OVCAR-5 ovarian = system: OVCAR-5 ovarian
SF-268 CNS = system: SF-268 CNS
CAKI-1 renal = system: CAKI-1 renal
COLO 205 colon = system: COLO 205 colon
PC-3 prostate = system: PC-3 prostate
786-0 renal = system: 786-0 renal
MCF7 breast = system: MCF7 breast
OVCAR-3 ovarian = system: OVCAR-3 ovarian
M14 melanoma = system: M14 melanoma
SK-MEL-2 melanoma = system: SK-MEL-2 melanoma
A549 NSCLC = system: A549 NSCLC
HCT-116 colon = system: HCT-116 colon
KM12 colon = system: KM12 colon
RXF 393 renal = system: RXF 393 renal
MOLT-4 leukemia = system: MOLT-4 leukemia
U251 CNS = system: U251 CNS
CCRF-CEM leukemia = system: CCRF-CEM leukemia
A498 renal = system: A498 renal
BT-549 breast = system: BT-549 breast
HOP-92 NSCLC = system: HOP-92 NSCLC
T-47D breast = system: T-47D breast
SK-MEL-28 melanoma = system: SK-MEL-28 melanoma
UACC-62 melanoma = system: UACC-62 melanoma
SF-295 CNS = system: SF-295 CNS
NCI-H522 lung = system: NCI-H522 lung
SK-MEL-5 melanoma = system: SK-MEL-5 melanoma
NCI-H460 lung = system: NCI-H460 lung
UACC-257 melanoma = system: UACC-257 melanoma
SK-OV-3 ovarian = system: SK-OV-3 ovarian
MDA-MB-435 = system: MDA-MB-435
K-562 leukemia = system: K-562 leukemia
HOP-62 NSCLC = system: HOP-62 NSCLC
NCI/ADR-RES ovarian = system: NCI/ADR-RES ovarian
SW-620 colon = system: SW-620 colon
HS 578T breast = system: HS 578T breast
SNB-75 CNS = system: SNB-75 CNS
DU-145 prostate = system: DU-145 prostate
HL-60(TB) leukemia = system: HL-60(TB) leukemia
SN12C renal = system: SN12C renal
SR leukemia = system: SR leukemia
OVCAR-8 ovarian = system: OVCAR-8 ovarian
SNB-19 CNS = system: SNB-19 CNS
NCI-H23 lung = system: NCI-H23 lung
HCT-15 colon = system: HCT-15 colon
MALME-3M melanoma = system: MALME-3M melanoma
OVCAR-4 ovarian = system: OVCAR-4 ovarian
ACHN renal = system: ACHN renal
IGROV1 ovarian = system: IGROV1 ovarian
TK-10 renal = system: TK-10 renal
SF-539 CNS = system: SF-539 CNS
HT29 colon = system: HT29 colon
MDA-N = system: MDA-N
MDA-MB-231 breast = system: MDA-MB-231 breast
EKVX NSCLC = system: EKVX NSCLC
NCI-H226 lung = system: NCI-H226 lung
RPMI-8226 leukemia = system: RPMI-8226 leukemia
UO-31 renal = system: UO-31 renal
LOX IMVI melanoma = system: LOX IMVI melanoma
HCC-2998 colon = system: HCC-2998 colon
DLD-1 colon = system: DLD-1 colon
M19-MEL melanoma = system: M19-MEL melanoma
DMS 273 small cell lung = system: DMS 273 small cell lung
LXFL 529 NSCLC = system: LXFL 529 NSCLC
HOP-18 NSCLC = system: HOP-18 NSCLC
DMS 114 small cell lung = system: DMS 114 small cell lung
KM20L2 colon = system: KM20L2 colon

Cc1cc(C)c2nc3c(c(C(O)C4CCCCN4)c2c1)CC/C3=C\c1ccc(Cl)cc1 (stereo not given)
TGI (OVCAR-5 ovarian): > 100 µM | TGI (SF-268 CNS): > 100 µM | TGI (CAKI-1 renal): > 100 µM | TGI (COLO 205 colon): > 100 µM | TGI (PC-3 prostate): > 100 µM | TGI (786-0 renal): > 100 µM | TGI (MCF7 breast): > 100 µM | TGI (OVCAR-3 ovarian): > 100 µM | TGI (M14 melanoma): > 100 µM | TGI (SK-MEL-2 melanoma): > 100 µM | TGI (A549 NSCLC): > 100 µM | TGI (HCT-116 colon): > 100 µM | TGI (KM12 colon): > 100 µM | TGI (RXF 393 renal): > 100 µM | TGI (MOLT-4 leukemia): > 100 µM | TGI (U251 CNS): > 100 µM | TGI (CCRF-CEM leukemia): > 100 µM | TGI (A498 renal): > 100 µM | TGI (BT-549 breast): > 100 µM | TGI (HOP-92 NSCLC): > 100 µM | TGI (T-47D breast): > 100 µM | TGI (SK-MEL-28 melanoma): > 100 µM | TGI (UACC-62 melanoma): > 100 µM | TGI (SF-295 CNS): > 100 µM | TGI (NCI-H522 lung): > 100 µM | TGI (SK-MEL-5 melanoma): 92.2 µM | TGI (NCI-H460 lung): > 100 µM | TGI (UACC-257 melanoma): > 100 µM | TGI (SK-OV-3 ovarian): > 100 µM | TGI (MDA-MB-435): > 100 µM | TGI (K-562 leukemia): > 100 µM | TGI (HOP-62 NSCLC): > 100 µM | TGI (NCI/ADR-RES ovarian): > 100 µM | TGI (SW-620 colon): > 100 µM | TGI (HS 578T breast): > 100 µM | TGI (SNB-75 CNS): > 100 µM | TGI (DU-145 prostate): > 100 µM | TGI (HL-60(TB) leukemia): 67.6 µM | TGI (SN12C renal): > 100 µM | TGI (SR leukemia): > 100 µM | TGI (OVCAR-8 ovarian): > 100 µM | TGI (SNB-19 CNS): > 100 µM | TGI (NCI-H23 lung): > 100 µM | TGI (HCT-15 colon): > 100 µM | TGI (MALME-3M melanoma): > 100 µM | TGI (OVCAR-4 ovarian): > 100 µM | TGI (ACHN renal): > 100 µM | TGI (IGROV1 ovarian): > 100 µM | TGI (TK-10 renal): > 100 µM | TGI (SF-539 CNS): > 100 µM | TGI (HT29 colon): > 100 µM | TGI (MDA-N): > 100 µM | TGI (MDA-MB-231 breast): > 100 µM | TGI (EKVX NSCLC): > 100 µM | TGI (NCI-H226 lung): > 100 µM | TGI (RPMI-8226 leukemia): > 100 µM

CNC(=O)[C@H](Cc1ccccc1)NC(=O)N(CCC#N)CCN(C(=O)N[C@@H](Cc1ccccc1)C(=O)OC)c1ccccc1
TGI (OVCAR-5 ovarian): > 100 µM | TGI (SF-268 CNS): > 100 µM | TGI (CAKI-1 renal): > 100 µM | TGI (COLO 205 colon): > 100 µM | TGI (UO-31 renal): > 100 µM | TGI (PC-3 prostate): > 100 µM | TGI (786-0 renal): > 100 µM | TGI (MCF7 breast): > 100 µM | TGI (OVCAR-3 ovarian): > 100 µM | TGI (M14 melanoma): > 100 µM | TGI (SK-MEL-2 melanoma): > 100 µM | TGI (A549 NSCLC): > 100 µM | TGI (LOX IMVI melanoma): > 100 µM | TGI (HCT-116 colon): > 100 µM | TGI (KM12 colon): > 100 µM | TGI (RXF 393 renal): > 100 µM | TGI (MOLT-4 leukemia): > 100 µM | TGI (U251 CNS): > 100 µM | TGI (CCRF-CEM leukemia): > 100 µM | TGI (A498 renal): > 100 µM | TGI (BT-549 breast): > 100 µM | TGI (HOP-92 NSCLC): > 100 µM | TGI (T-47D breast): > 100 µM | TGI (SK-MEL-28 melanoma): > 100 µM | TGI (UACC-62 melanoma): > 100 µM | TGI (SF-295 CNS): > 100 µM | TGI (NCI-H522 lung): > 100 µM | TGI (SK-MEL-5 melanoma): > 100 µM | TGI (NCI-H460 lung): > 100 µM | TGI (UACC-257 melanoma): > 100 µM | TGI (SK-OV-3 ovarian): > 100 µM | TGI (MDA-MB-435): > 100 µM | TGI (K-562 leukemia): > 100 µM | TGI (HOP-62 NSCLC): > 100 µM | TGI (NCI/ADR-RES ovarian): > 100 µM | TGI (SW-620 colon): > 100 µM | TGI (HS 578T breast): > 100 µM | TGI (SNB-75 CNS): > 100 µM | TGI (DU-145 prostate): > 100 µM | TGI (HL-60(TB) leukemia): > 100 µM | TGI (SR leukemia): > 100 µM | TGI (OVCAR-8 ovarian): > 100 µM | TGI (SNB-19 CNS): > 100 µM | TGI (NCI-H23 lung): > 100 µM | TGI (HCT-15 colon): > 100 µM | TGI (MALME-3M melanoma): > 100 µM | TGI (OVCAR-4 ovarian): > 100 µM | TGI (ACHN renal): > 100 µM | TGI (TK-10 renal): > 100 µM | TGI (SF-539 CNS): > 100 µM | TGI (HT29 colon): > 100 µM | TGI (MDA-N): > 100 µM | TGI (MDA-MB-231 breast): > 100 µM | TGI (EKVX NSCLC): > 100 µM | TGI (NCI-H226 lung): > 100 µM | TGI (RPMI-8226 leukemia): > 100 µM

Nc1nc(SCc2ccccc2Cl)c2ncn(C3OC(CO)C(O)C3O)c2n1 (stereo not given)
TGI (OVCAR-5 ovarian): > 100 µM | TGI (SF-268 CNS): > 100 µM | TGI (CAKI-1 renal): > 100 µM | TGI (COLO 205 colon): > 100 µM | TGI (UO-31 renal): > 100 µM | TGI (786-0 renal): > 100 µM | TGI (OVCAR-3 ovarian): > 100 µM | TGI (HCC-2998 colon): > 100 µM | TGI (M14 melanoma): > 100 µM | TGI (SK-MEL-2 melanoma): > 100 µM | TGI (A549 NSCLC): > 100 µM | TGI (LOX IMVI melanoma): > 100 µM | TGI (HCT-116 colon): > 100 µM | TGI (KM12 colon): > 100 µM | TGI (RXF 393 renal): > 100 µM | TGI (MOLT-4 leukemia): > 100 µM | TGI (U251 CNS): > 100 µM | TGI (CCRF-CEM leukemia): > 100 µM | TGI (A498 renal): > 100 µM | TGI (DLD-1 colon): > 100 µM | TGI (HOP-92 NSCLC): > 100 µM | TGI (SK-MEL-28 melanoma): > 100 µM | TGI (UACC-62 melanoma): > 100 µM | TGI (SF-295 CNS): > 100 µM | TGI (NCI-H522 lung): > 100 µM | TGI (SK-MEL-5 melanoma): > 100 µM | TGI (NCI-H460 lung): > 100 µM | TGI (SK-OV-3 ovarian): > 100 µM | TGI (K-562 leukemia): > 100 µM | TGI (HOP-62 NSCLC): > 100 µM | TGI (SW-620 colon): > 100 µM | TGI (M19-MEL melanoma): > 100 µM | TGI (DMS 273 small cell lung): > 100 µM | TGI (SNB-75 CNS): 98.2 µM | TGI (HL-60(TB) leukemia): > 100 µM | TGI (SN12C renal): > 100 µM | TGI (SR leukemia): > 100 µM | TGI (LXFL 529 NSCLC): > 100 µM | TGI (OVCAR-8 ovarian): > 100 µM | TGI (SNB-19 CNS): > 100 µM | TGI (NCI-H23 lung): > 100 µM | TGI (HCT-15 colon): > 100 µM | TGI (HOP-18 NSCLC): > 100 µM | TGI (MALME-3M melanoma): > 100 µM | TGI (OVCAR-4 ovarian): > 100 µM | TGI (ACHN renal): > 100 µM | TGI (IGROV1 ovarian): > 100 µM | TGI (DMS 114 small cell lung): > 100 µM | TGI (TK-10 renal): > 100 µM | TGI (SF-539 CNS): > 100 µM | TGI (HT29 colon): > 100 µM | TGI (KM20L2 colon): > 100 µM | TGI (RPMI-8226 leukemia): > 100 µM
